Data taken from patent US10105380B2, “Glycoclusters and their pharmaceutical use as antibacterials” (priority 2013, dated 2018).
Where two headings read alike, the source gives them in different places.

Experiments:
Type in all cases: binding
[1] = target: T1, PA-IL (Pseudomonas aeruginosa, UniProt Q05097); details: for Potency vs EG3-O-Gal: ratio of IC50Lac to mono EG3-O-galactose (entry 1); for Potency vs AcNPhe-O-Gal: ratio of IC50Lac to mono-aromatic galactose 31 (entry 2)
Procedure: IC50 Determination with “on Chip” Biological Recognition
Lectin PA-IL (0.12 μM final concentration), BSA (2% final concentration) and CaCl2 (1 μg/mL final concentration) was diluted in PBS1× (pH=7.4). In each micro tube was added the inhibitor lactose at the desired final concentration (0; 1.10^−5; 1.10^−4; 5.10^−4; 1.10^−3; 5.10^−3; 1.10^−2; 5.10^−2; 0.1; 1; 5; 10; 50; 10^2; 5.10^2; 10^3; 5.10^3; 10^4; 10^5; 3.10^5).
2 μL of each solution were deposited in the corresponding microwells and the slide was incubated at 37° C. in a water vapor saturated chamber for 3 h. The washing steps are: PBS-Tween0.2% 5 min at 4° C., then briefly in deionized water and dried by centrifugation.
Slide was scanned at 532 nm then at 635 nm with the Microarray scanner, GenePix 4100A software package (Axon Instruments; λex 532/635 nm and λem 575/670 nm). The fluorescence signal of each conjugate was determined as the average of the mean fluorescence signal of sixty-four spots.
IC50 values were determined using “BioDataFit 1.02 program”. The model chosen was “Sigmoidal”: Y=a+(b−a)/[1+10^(x−c)]
with a=FImin, b=FImax, x=[…] and c=log(IC50). FImin/max is the minimum/maximum Alexa-647 fluorescence signal observed for a galactomimetic.
So the IC50 value was called IC50Lac.

[2] = target: T1, PA-IL; test: Surface Plasmon Resonance (SPR) inhibition; details: IC50 of Gal-ArNO2 over IC50 of the molecule
Procedure: (§1) The binding of PA-IL to galactoclusters was probed as the ability of the clusters to inhibit the binding of PA-IL to rabbit erythrocytes (Hemagglutination inhibition assay, HIA) or to surface bound galactosyl modified polyacrylamide either by Surface Plasmon Resonance (SPR), Enzyme Linked Assay (ELLA) Inhibition was measured with competitive assays. In HIA experiments, the minimal inhibitory concentration (MIC) is the minimal concentration of galactocluster that inhibit the hemagglutination of rabbit erythrocytes in presence of the lectin. The lower the MIC the highest is the binding of the galactocluster to the lectin. SPR and ELLA were used to determine the IC50 value. […] The lower the IC50 value as determined by SPR (^SPRIC50) and ELLA (^ELLAIC50), the higher is the binding of PA-IL to the galactocluster.
SPR inhibition experiments were performed using a Biacore 3000 instrument at 25° C. Measurements were carried out on two channels with two immobilized sugars: α-L-fucose (channel 1) and α-D-galactose (channel 2). Immobilization of sugars was performed at 25° C. using running buffer (HBS) at […]. Immobilization on each channel (CM5 Chip) was performed independently as follows. First, the channel was activated by injecting a fresh mixture of EDC/NHS (35 μL, 420 s). Then a solution of streptavidin ([…] in 0.1 mM AcONa pH 5 buffer) was injected (50 μL, 600 s). The remaining reactive species were quenched by injecting ethanolamine (1M, 35 μL, 420 s) into the solution. Finally, a solution of the desired biotinylated-polyacrylamide-sugar (lectinity, […]) was coated onto the surface (50 μL, 600 s) through streptavidin-biotin interaction. […] Inhibition studies consisted of the injection (150 μL, 10 μL·min^−1, dissociation 120 s) of incubated (>1 h, RT) mixtures of PAIL ([…]) and various concentrations of inhibitor (twofold cascade dilutions). […] The CM5 chip was fully regenerated by successive injections of d-galactose (2×30 μL, 100 mm in running buffer). Binding was measured as RU over time after blank subtraction, and data were then evaluated using the BIAevaluation Software version 4.1. For IC50 evaluation, the response (Req-fitted) was considered to be the amount of lectin bound to the carbohydrate-coated surface at equilibrium in the presence of a defined concentration of inhibitor. Inhibition curves were obtained by plotting the percentage of inhibition against the inhibitor concentration (on a logarithmic scale) by using Origin 7.0 software (OriginLab Corp.), and IC50 values were extracted from sigmoidal fit of the inhibition curve.
Microtiter plates were modified with PAA-galactose. […] The lowest the IC50 as determined the strongest is the binding of the studied molecule to PA-IL. […]

[3] = target: T1, PA-IL; test: Enzyme Linked Lectin Assay (ELLA), PAA-galactose coated plates; details: IC50 of Gal-ArNO2 over IC50 of the molecule
Procedure: as §1
96-Well microtiter plates (NuncMaxisorb) were coated with α-PAA-Gal(PAA=polyacrylamide) for PA-IL (Lectinity Holding, Inc.): 100 μL of 5 μg·mL^−1 in carbonate buffer, pH 9.6 for 1 h at 37° C., then blocking at 37° C. for 1 h with 100 μL per well of 3% (w/v) bovine serum albumin (BSA) in phosphate buffer solution (PBS). Lectin solutions (75 μL) were diluted (1:2) starting from 30 μg·mL^−1. After 1 h incubation at 37° C. and three washes with T-PBS (PBS that contained 0.05% Tween 20), horseradish peroxidase (HRP)-streptavidin conjugate (100 μL; dilution 2:8000; Boehringer-Mannheim) was added and left for 1 h at 37° C. Coloration was developed by using 100 μL per well of 0.05% phosphate/citrate buffer that contained o-phenylenediaminedihydrochloride ([…]) and urea hydrogen peroxide (0.4 mg·mL^−1) (OPD kit, Sigma-Aldrich) for 15 min and stopped with sulfuric acid (50 μL, 30%). Absorbance was then read at 490 nm using a microtiter plate reader (BioRad 680). The concentration of biotinylatedlectins was determined by plotting the relative absorbance versus lectin concentration. The concentration that led to the highest response in the linear area was selected as the standard lectin concentration for the subsequent inhibition experiments.
Microtiter plates were modified with PAA-galactose. Slides were incubated with increasing concentration of galactosylated ligands. […] The lowest the IC50 as determined the strongest is the binding of the studied molecule to PA-IL. ELLA: This IC50 will be referred here after ^ELLAIC50. SPR: This IC50 will be referred here after ^SPRIC50.

[4] = target: T1, PA-IL; test: Kd determination on DDI microarray (Langmuir isotherm, Scatchard plot); details: DNA-tagged galactoclusters G1-G24 on glycoarray
Procedure: The methodologies for Kd and IC50 value determination have been previously reported (Gerland, B. et al., (2012) Bioconjugate Chem. 23, 1534-1547; Zhang, J. et al., (2009) Chem. Comm., 6795-6797; Zhang, J. et al., (2009) Biosens. Bioelectron. 24, 2515-2521).
CaCl2 (1 μg/mL final concentration) was added. PA-IL at the desired final concentration was then added. 2 μL of each solution (corresponding to the desired PA-IL concentration) were poured in the corresponding microwells. The slide was incubated (3 h, 37° C.) in a water vapor saturated chamber and finally washed in PBS-Tween 20 (0.02%, 5 min, 4° C.) and dried. A Microarray scanner, GenePix 4100A software package (Axon Instruments; λex 532/635 nm and λem 575/670 nm) was used for fluorescent imaging of both fluorophore (Cy3 and Alexa 647). The average of the mean fluorescence signal was calculated from eight spots. The resulting Langmuir Isotherms were linearised using Scatchard plot to give the Kd values at the ordonnate intercept.

[5] = lactose concentration required to displace 50% of PA-IL from the glycocluster, higher = better binding, read-out: IC50Lac
[6] = DNA-tagged galactoclusters G1-G24 on glycoarray, read-out: IC50

T1 sequence (Q05097 2-122): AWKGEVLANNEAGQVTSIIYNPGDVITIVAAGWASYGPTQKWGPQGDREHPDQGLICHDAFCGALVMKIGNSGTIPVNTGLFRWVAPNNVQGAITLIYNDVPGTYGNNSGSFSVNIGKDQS

| Substance | IC50 [1, 6] [mM] | Kd [4] [nM] | also measured |
| --- | --- | --- | --- |
| Man(POProTzAcNPhe-O-Gal)8 [compound 34] | – | – | IC50 [1, 5]: 6.8 mM; Potency vs EG3-O-Gal [1]: 1361; Potency vs AcNPhe-O-Gal [1]: 425 |
| Man(POProTzEG3-O-Gal)4 | – | – | SPR βAr [2]: 1.7; ELLA βAr [3]: 1.2 |
| Man(POProTzEG3-O-Gal)4 [C3] | – | – | β ([1]; Table 6, relative potency vs monovalent ligand 31): 1.8; IC50 [1, 5]: 0.029 mM; Potency vs EG3-O-Gal [1]: 5.8; Potency vs AcNPhe-O-Gal [1]: 1.8 |
| Man(PSEG2MTzAcNPh-SGal)4 [G10] | 38.2 | 55 | – |
| Man(PSEG2MTzAcNPhe-CH2-Gal)4 [G6] | 5.7 | 170 | – |
| Man(PSEG2MTzAcNPhe-CH2-SGal)4 [G14] | 18.5 | 71 | – |
| Man(PSEG2MTzproNCONapht-OGal)4 [G22] | – | 20 | – |
| Man(PSEG3MTzAcNPh-Gal)4 [G4] | 17.7 | 76 | – |
| Man(PSEG3MTzAcNPh-SGal)4 [G12] | 19.7 | 70 | – |
| Man(PSEG3MTzAcNPhe-CH2-Gal)4 [G8] | 8.4 | 125 | – |
| Man(PSEG3MTzAcNPhe-CH2-SGal)4 [G16] | 18.1 | 75 | – |
| Man(PSEG3MTzproNCOBisphe-OGal)4 [G20] | 81.6 | 43 | – |
| Man(PSEG3MTzproNCONapht-OGal)4 [G24] | – | 31 | – |
| Man[POTHME(MTzAcNPhe-O-Gal)2]4 [compound 35] | – | – | IC50 [1, 5]: 1.81 mM; Potency vs EG3-O-Gal [1]: 361; Potency vs AcNPhe-O-Gal [1]: 113 |
